Results taken from BindingDB's records for PubMed 37866336 (The First Affiliated Hospital of China Medical University).

Tests used:
[1] = molecular target: Melatonin receptor type 1A (Homo sapiens, UniProt P48039); assay: Binding affinity to human MT1 receptor expressed in CHO cells assessed as inhibition constant by HTRF method
[2] = molecular target: T1, Melatonin receptor type 1B (Homo sapiens, UniProt P49286); assay: Binding affinity to human MT2 receptor expressed in CHO cells assessed as inhibition constant by HTRF method
T1 sequence (P49286 whole entry): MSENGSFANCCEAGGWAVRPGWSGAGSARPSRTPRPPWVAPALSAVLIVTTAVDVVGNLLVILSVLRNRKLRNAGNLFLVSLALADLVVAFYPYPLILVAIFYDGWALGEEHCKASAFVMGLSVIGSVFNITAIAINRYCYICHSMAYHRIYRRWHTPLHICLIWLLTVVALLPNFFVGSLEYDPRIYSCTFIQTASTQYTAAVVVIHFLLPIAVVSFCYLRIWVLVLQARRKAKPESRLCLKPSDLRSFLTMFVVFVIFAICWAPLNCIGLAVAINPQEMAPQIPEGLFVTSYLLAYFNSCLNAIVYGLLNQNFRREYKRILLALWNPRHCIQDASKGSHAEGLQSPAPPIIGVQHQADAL

Sequence of Melatonin receptor type 1A (P48039 whole entry): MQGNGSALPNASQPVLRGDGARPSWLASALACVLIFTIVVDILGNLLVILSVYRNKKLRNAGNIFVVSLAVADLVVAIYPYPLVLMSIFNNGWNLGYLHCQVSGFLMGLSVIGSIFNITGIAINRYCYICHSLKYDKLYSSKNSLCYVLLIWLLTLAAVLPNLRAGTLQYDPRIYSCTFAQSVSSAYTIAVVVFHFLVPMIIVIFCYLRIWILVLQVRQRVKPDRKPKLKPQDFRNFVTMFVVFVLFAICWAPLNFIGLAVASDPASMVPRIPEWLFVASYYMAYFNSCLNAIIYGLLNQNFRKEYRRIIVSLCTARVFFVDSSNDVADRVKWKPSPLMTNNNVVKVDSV

Ki [1] | Ki [2] | SMILES
36 nM | – | CCCn1c(NC(=O)Cc2coc3cc(OC)ccc23)nc2ccccc21 [Name not given]
– | 36 nM | N#CN1CC[C@@H](NC(=O)c2ccc(-c3cnc4nccn4c3)cc2F)C1 [Name not given]
